Measurements from patent publication US20240057603A1, “ISOCYCLOSERAM FORMULATION” (SYNGENTA CROP PROTECTION AG, priority 2020, published 2024).

Test: physchem
Details: 20 °C

In the case of `CCN1OCC(NC(=O)c2ccc(C3=NOC(c4cc(Cl)c(F)c(Cl)c4)(C(F)(F)F)C3)cc2C)C1=O` (stereo not shown) [Isocycloseram], the solubility is reported as < 5 µg/mL.
